Measured values as given in patent publication US20060035317A1, “Effect of treatment with 4,5-dihydroxy-2-cyclopenten-1-one (dhcp) on gene expression and quorum-sensing in bacteria” (priority 2002, published 2006).

Columns and labels:
[1] = test system: AI-2 activity, V. harveyi reporter strain BB170; details: Schauder et al., 2001; cited from earlier work
[2] = test system: AI-2 activity, V. harveyi reporter strain BB170; assay: AI-2 assay (luminescence of reporter strain); type: cell-based
Protocol: FIGS. 2A and 2B are graphs showing DHCP inhibits AI-2 activity. The AI-2 activity assay was carried out as described in Materials and Methods section of Example 1. The luminescence seen with V. harveyi BB152 was assumed as 100% and the other activities were expressed as relative %. In FIG. 2A, the lanes are as follows: Sterile AB medium, lane 1; V. harveyi BB152 culture fluid, lane 2; DHCP (250 μM), lane 3; DHCP (250 μM) plus V. harveyi BB152 culture fluid, lane 4. In FIG. 2B, DHCP was added to the reaction mixtures after maximum luminescence was generated by AI-2, at a concentration of 250 μM (closed circles) and 100 μM (open squares). The corresponding control activity of AI-2 without DHCP addition is also shown (open triangles). The light production was monitored at various time points with a liquid scintillation counter.
The AI-2 assays using V. harveyi reporter strain (BB170) were carried out as described by Surette and Bassler (Surette et al., 1999). Cell-free culture fluid from V. harveyi BB152 strain was used as a positive control. Sterile AB medium was used a negative control. Briefly, the V. harveyi BB170 strain was grown overnight with aeration at 30° C. in the AB medium and the cells were then diluted 1:5000 in the fresh medium. The diluted culture (90 μl) was added in the assay mixture containing 10 μl of AB medium or cell-free culture fluid of V. harveyi BB152/DHCP (100-250 μM). To check the effect of DHCP on the light production by AI-2, it was added to the reaction mixture after the maximum luminescence was achieved. The light production was monitored with a liquid scintillation counter.
In the present study, the AI-2 assay designed by Suretter and Bassler (Surette et al., 1999) was used. The V. harveyi BB170 reporter strain has the quorum-sensing phenotype, sensor 1^−, sensor 2^+. It induces lux expression through the signaling system 2 detector. Addition of 10% cell-free culture fluid prepared from V. harveyi BB152 strain (containing the system 2 autoinducer) stimulates luminescence expression in the reporter strain. […] The laboratory of the present inventors examined if DHCP inhibits the activity of AI-2. […] Sterile AB medium was used as a negative control (lane 1). […] It has been reported that the AI-2 gave maximum luminescence at approximately 10 μM concentration (Schauder et al., 2001). It should be noted that the DHCP concentration used in the present assay was in excess of the AI-2 concentration. It was also tested if DHCP can inhibit AI-2 activity when it is added after maximum luminescence is generated by AI-2. […] When it was added at the concentration of 100 μM (open squares), the AI-2 activity was reduced to zero after 40 min. The corresponding control activity without DHCP addition (open triangles) was completely stable.

O=C1C=CC(O)C1O (centres unmarked) [DHCP, 4,5-dihydroxy-2-cyclopenten-1-one]
Activity as AI-2 candidate in the screening assay [1]: did not show any activity | Time until AI-2 activity was reduced to zero ([2]; DHCP 100 μM added after maximum luminescence generated by AI-2, FIG. 2B): 40 min | Time until AI-2 activity was reduced to zero ([2]; DHCP 250 μM added after maximum luminescence generated by AI-2, FIG. 2B): ≤ 8 min | Inhibition of AI-2 activity ([2]; DHCP 250 μM added immediately before AI-2 containing cell-free extract of V. harveyi BB152, FIG. 2A lane 4): completely inhibited | AI-2 activity (luminescence) of DHCP itself ([2]; DHCP 250 μM alone, FIG. 2A lane 3): did not show AI-2 activity
